pIC50: −log10 of the molar value.
Experiments:
Rattus norvegicus [1] = assay: Anti-inflammatory activity against carrageenan-induced paw edema in Sprague-Dawley rat assessed as inhibition of paw edema at 10 mg/kg, ip measured after 3 hrs relative to control; assay type: functional; design: scale not given: the % may be the effect or the level left
Rattus norvegicus [2] = assay: Anti-inflammatory activity against carrageenan-induced paw edema in Sprague-Dawley rat assessed as reduction in edema measured after 6 hrs relative to indomethacin; assay type: functional; design: concentration or dose not given beside the values
Rattus norvegicus [3] = assay: Anti-inflammatory activity against carrageenan-induced paw edema in Sprague-Dawley rat assessed as reduction in edema measured after 3 hrs relative to indomethacin; assay type: functional; design: concentration or dose not given beside the values
Rattus norvegicus [4] = assay: Anti-inflammatory activity against carrageenan-induced paw edema in Sprague-Dawley rat assessed as inhibition of paw edema at 10 mg/kg, ip measured after 6 hrs relative to control; assay type: functional; design: scale not given: the % may be the effect or the level left
[5] = target: T1, Seed linoleate 13S-lipoxygenase-1 (Glycine max) (UniProt P08170); assay: Inhibition of soybean LOX-1 using linoleic acid as substrate at 100 uM relative to control
T1 sequence (whole entry): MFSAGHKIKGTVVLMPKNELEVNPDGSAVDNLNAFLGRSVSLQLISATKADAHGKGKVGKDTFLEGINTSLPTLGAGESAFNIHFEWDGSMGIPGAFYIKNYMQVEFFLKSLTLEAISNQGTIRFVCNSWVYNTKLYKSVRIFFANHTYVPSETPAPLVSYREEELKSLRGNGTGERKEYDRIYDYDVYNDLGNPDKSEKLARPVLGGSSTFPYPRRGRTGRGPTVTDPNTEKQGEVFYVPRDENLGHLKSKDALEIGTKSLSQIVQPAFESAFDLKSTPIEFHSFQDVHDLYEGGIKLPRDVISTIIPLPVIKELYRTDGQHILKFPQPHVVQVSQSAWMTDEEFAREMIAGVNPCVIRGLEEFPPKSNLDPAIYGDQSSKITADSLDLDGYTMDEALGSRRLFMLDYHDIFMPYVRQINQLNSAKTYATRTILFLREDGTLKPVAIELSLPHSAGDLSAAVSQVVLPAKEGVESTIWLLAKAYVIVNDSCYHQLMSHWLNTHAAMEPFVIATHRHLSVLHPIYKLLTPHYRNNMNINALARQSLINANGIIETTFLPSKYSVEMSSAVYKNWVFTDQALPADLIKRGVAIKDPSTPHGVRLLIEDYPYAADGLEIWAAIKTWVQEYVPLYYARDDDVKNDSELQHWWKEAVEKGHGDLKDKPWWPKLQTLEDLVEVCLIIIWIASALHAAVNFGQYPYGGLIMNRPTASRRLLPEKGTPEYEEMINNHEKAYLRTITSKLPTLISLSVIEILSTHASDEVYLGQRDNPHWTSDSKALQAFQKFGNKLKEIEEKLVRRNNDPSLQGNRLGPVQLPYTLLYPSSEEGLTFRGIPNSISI

Rattus norvegicus [6] = assay: Anti-inflammatory activity against Carrageenan-induced paw edema in rat assessed as reduction in edema measured after 6 hrs relative to control; assay type: functional; design: concentration or dose not given beside the values
[7] = target: T2, Prostaglandin G/H synthase 2 (Homo sapiens, UniProt P35354); assay: Inhibition of COX-2 (unknown origin)
T2 sequence (P35354 whole entry): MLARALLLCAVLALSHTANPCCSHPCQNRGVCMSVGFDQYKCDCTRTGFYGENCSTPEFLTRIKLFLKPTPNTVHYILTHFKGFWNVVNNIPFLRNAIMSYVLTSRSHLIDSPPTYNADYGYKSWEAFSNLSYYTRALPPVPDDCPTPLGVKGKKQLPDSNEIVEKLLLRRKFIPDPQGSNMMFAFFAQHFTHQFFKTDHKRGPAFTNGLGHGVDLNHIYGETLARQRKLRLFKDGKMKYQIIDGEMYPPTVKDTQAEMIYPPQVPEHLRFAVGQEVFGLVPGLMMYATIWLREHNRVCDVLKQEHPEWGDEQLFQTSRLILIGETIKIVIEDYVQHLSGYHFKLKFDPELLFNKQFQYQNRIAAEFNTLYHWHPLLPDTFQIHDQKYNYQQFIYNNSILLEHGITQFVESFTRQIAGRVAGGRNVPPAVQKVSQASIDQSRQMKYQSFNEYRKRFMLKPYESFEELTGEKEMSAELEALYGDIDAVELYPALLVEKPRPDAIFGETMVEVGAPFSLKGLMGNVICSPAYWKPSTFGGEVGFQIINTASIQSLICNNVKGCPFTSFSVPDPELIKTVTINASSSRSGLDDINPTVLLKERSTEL

[8] = target: COX-1/COX-2 (Homo sapiens) (UniProt P35354+P23219); assay: Selectivity index, ratio of IC50 for COX-1 (unknown origin) to IC50 for COX-2 (unknown origin); assay type: protein assay
BV-2 = assay: Antiinflammatory activity in mouse BV-2 cells assessed as reduction in LPS-induced nitric oxide production at 10 uM relative to control; assay type: functional; design: scale not given: the % may be the effect or the level left
[9] = Inhibition of LPS-induced NFkappaB activation in mouse RAW264.7 cells assessed as effect on LPS-induced nuclear translocation of NF-kappaB incubated for 1 hr; assay type: cell-based; conditions: RAW264.7, 1 h
RAW264.7 = assay: Inhibition of LPS-induced NFkappaB activation in mouse RAW264.7 cells assessed as effect on LPS-induced nuclear translocation of NF-kappaB incubated for 1 hr at 5 uM relative to control; assay type: cell-based
[10] = target: T3, Seed linoleate 13S-lipoxygenase-1 (Glycine max, UniProt P08170); assay: Inhibition of soybean LOX-1 using linoleic acid as substrate
T3 sequence (P08170 whole entry): T1 sequence (whole entry)

Sequence of COX-1/COX-2 (Homo sapiens) (P23219 whole entry, looked up, one chain of several): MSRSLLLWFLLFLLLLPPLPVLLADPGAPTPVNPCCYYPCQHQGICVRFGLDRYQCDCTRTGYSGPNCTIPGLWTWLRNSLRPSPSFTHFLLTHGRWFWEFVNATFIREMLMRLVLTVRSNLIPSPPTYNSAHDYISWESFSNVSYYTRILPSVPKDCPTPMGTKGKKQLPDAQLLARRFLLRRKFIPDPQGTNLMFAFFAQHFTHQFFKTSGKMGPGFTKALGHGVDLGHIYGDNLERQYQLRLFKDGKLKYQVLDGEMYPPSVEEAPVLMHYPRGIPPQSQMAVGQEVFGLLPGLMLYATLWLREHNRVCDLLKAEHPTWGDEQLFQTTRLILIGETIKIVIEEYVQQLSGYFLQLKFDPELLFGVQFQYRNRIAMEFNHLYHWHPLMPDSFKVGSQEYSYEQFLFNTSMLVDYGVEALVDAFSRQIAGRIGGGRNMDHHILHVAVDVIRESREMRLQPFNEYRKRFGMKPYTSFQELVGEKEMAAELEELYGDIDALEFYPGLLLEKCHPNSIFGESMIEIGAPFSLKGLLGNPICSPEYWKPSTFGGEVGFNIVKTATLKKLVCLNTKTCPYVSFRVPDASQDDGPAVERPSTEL

Work on Cc1ccc(-n2nc(C(=O)/C=C/c3ccc(Cl)cc3)c(C(=O)/C=C/c3ccc(Cl)cc3)c2C)cc1 yielded an Activity (Rattus norvegicus [1]) of 21.23%, an Activity (Rattus norvegicus [2]) of 53.08% and an Activity (Rattus norvegicus [3]) of 59.87%. The Activity (Rattus norvegicus [4]) was 25.92%.
CN(C)c1ccc(/C=C/C=C/C(=O)c2ccc(OCCCCCCOc3ccc(C(=O)/C=C/C=C/c4ccc(N(C)C)cc4)cc3)cc2)cc1 showed an inhibition [5] of 7%.
Cc1c(C(=O)/C=C/c2ccco2)c(C(=O)/C=C/c2ccco2)nn1-c1ccc(F)cc1 gave an Activity (Rattus norvegicus [6]) of 16.79%.
Molecule CN(C)c1ccc(/C=C/C=C/C(=O)c2ccc(OCCCCCCCCOc3ccc(C(=O)/C=C/C=C/c4ccc(N(C)C)cc4)cc3)cc2)cc1 has an inhibition [5] of 12%.
Work on CN(C)c1ccc(/C=C/C=C/C(=O)c2ccc(OCCCCCCCOc3ccc(C(=O)/C=C/C=C/c4ccc(N(C)C)cc4)cc3)cc2)cc1 yielded an inhibition [5] of 65%.
Molecule Cc1c(C(=O)/C=C/c2ccccc2)c(C(=O)/C=C/c2ccccc2)nn1-c1ccccc1 has an Activity (Rattus norvegicus [1]) of 32.58%, an Activity (Rattus norvegicus [2]) of 79.67% and an Activity (Rattus norvegicus [3]) of 77.66%. It also gave an Activity (Rattus norvegicus [4]) of 38.9%.
In the case of O=C(/C=C/c1ccc(OCc2ccc(Br)cc2)cc1)c1ccc(OCCCOc2ccc(C(=O)/C=C/c3ccc(OCc4ccc(Br)cc4)cc3)cc2)cc1, the inhibition [5] was 41%.
O=C(/C=C/c1ccco1)c1ccc(OCCCOc2ccc(C(=O)/C=C/c3ccco3)cc2)cc1 showed an inhibition [5] of 57%.
Work on CN(C)c1ccc(/C=C/C=C/C(=O)c2ccc(OCCOc3ccc(C(=O)/C=C/C=C/c4ccc(N(C)C)cc4)cc3)cc2)cc1 yielded an inhibition [5] of 77%.
With COc1ccc(/C=C/C(=O)c2nn(-c3ccc(Cl)cc3)c(C)c2C(=O)/C=C/c2ccc(OC)cc2)cc1 the pIC50 [7] was 6.52, the Ratio IC50 [8] was 333 and the Activity (Rattus norvegicus [6]) was 66.21%.
Work on O=C(/C=C/c1cccs1)c1ccc(OCCCOc2ccc(C(=O)/C=C/c3cccs3)cc2)cc1 yielded an inhibition [5] of 32%.
In the case of O=C(/C=C/C=C/c1ccccc1)c1ccc(OCCCOc2ccc(C(=O)/C=C/C=C/c3ccccc3)cc2)cc1, the inhibition [5] was 41%.
Work on COc1ccc(/C=C/C(=O)c2nn(-c3ccc(F)cc3)c(C)c2C(=O)/C=C/c2ccc(OC)cc2)cc1 yielded a pIC50 [7] of 6.49, a Ratio IC50 [8] of 312 and an Activity (Rattus norvegicus [6]) of 65.21%.
Cc1ccc(-n2nc(C(=O)/C=C/c3ccco3)c(C(=O)/C=C/c3ccco3)c2C)cc1 showed an Activity (Rattus norvegicus [1]) of 9.69%, an Activity (Rattus norvegicus [2]) of 23.2% and an Activity (Rattus norvegicus [3]) of 21.14%. It also gave an Activity (Rattus norvegicus [4]) of 11.33%.
O=C(/C=C/c1ccccc1)c1ccc(OCCCOc2ccc(C(=O)/C=C/c3ccccc3)cc2)cc1 showed an inhibition [5] of 76%.
Molecule COc1ccc(/C=C/C(=O)c2nn(-c3ccc(Br)cc3)c(C)c2C(=O)/C=C/c2ccc(OC)cc2)cc1 has a pIC50 [7] of 6.15 and a Ratio IC50 [8] of 76.
In the case of Cc1c(C(=O)/C=C/c2ccco2)c(C(=O)/C=C/c2ccco2)nn1-c1ccccc1, the Activity (Rattus norvegicus [1]) was 28.15%, the Activity (Rattus norvegicus [2]) was 58.6% and the Activity (Rattus norvegicus [3]) was 61.45%. For the same molecule, the Activity (Rattus norvegicus [4]) was 28.61%.
In the case of Cc1c(C(=O)/C=C/c2ccc(Cl)cc2Cl)c(C(=O)/C=C/c2ccc(Cl)cc2Cl)nn1-c1ccccc1, the Activity (Rattus norvegicus [6]) was 12.86%.
For COc1cc(/C=C/C(=O)c2cccc(C(=O)/C=C/c3ccc(O)c(OC)c3)c2)ccc1O, the Activity (BV-2) was 70%.
For Cc1ccc(/C=C/C(=O)c2ccc(OCCCOc3ccc(C(=O)/C=C/c4ccc(C)o4)cc3)cc2)o1, the inhibition [5] was 52%.
With CN(C)c1ccc(/C=C/C=C/C(=O)c2ccc(OCCCCCOc3ccc(C(=O)/C=C/C=C/c4ccc(N(C)C)cc4)cc3)cc2)cc1 the inhibition [5] was 23%.
For COc1ccc(/C=C/C(=O)c2nn(-c3ccccc3)c(C)c2C(=O)/C=C/c2ccc(OC)cc2)cc1, the Activity (Rattus norvegicus [1]) was 32.69%, the Activity (Rattus norvegicus [2]) was 73.56% and the Activity (Rattus norvegicus [3]) was 71.35%. For the same molecule, the Activity (Rattus norvegicus [4]) was 35.92%.
O=C1/C(=C/c2ccccn2)CNC/C1=C\c1ccccn1 showed a pIC50 [9] of 5.35 and an inhibition (RAW264.7) of 100%.
In the case of Cc1c(C(=O)/C=C/c2ccc(Cl)cc2Cl)c(C(=O)/C=C/c2ccc(Cl)cc2Cl)nn1-c1ccc(Cl)cc1, the Activity (Rattus norvegicus [6]) was 15.36%.
Work on CC(/C=C/C(=O)c1ccc(OCCCOc2ccc(C(=O)/C=C/C(C)=C/c3ccccc3)cc2)cc1)=C\c1ccccc1 yielded an inhibition [5] of 26.5%.
With O=C(/C=C/C(Br)=C/c1ccccc1)c1ccc(OCCCOc2ccc(C(=O)/C=C/C(Br)=C/c3ccccc3)cc2)cc1 the inhibition [5] was 24.5%.
For O=C(/C=C/c1ccc(Oc2ccccc2)cc1)c1ccc(OCCCOc2ccc(C(=O)/C=C/c3ccc(Oc4ccccc4)cc3)cc2)cc1, the pIC50 [10] was 4.26 and the inhibition [5] was 100%.
COc1ccc(/C=C/C(=O)c2nn(-c3ccc(C)cc3)c(C)c2C(=O)/C=C/c2ccc(OC)cc2)cc1 showed an Activity (Rattus norvegicus [1]) of 27.43%, an Activity (Rattus norvegicus [2]) of 43.78% and an Activity (Rattus norvegicus [3]) of 59.87%. For the same molecule, the Activity (Rattus norvegicus [4]) was 21.38%.
In the case of Cc1c(C(=O)/C=C/c2ccc(Cl)cc2Cl)c(C(=O)/C=C/c2ccc(Cl)cc2Cl)nn1-c1ccc(Br)cc1, the Activity (Rattus norvegicus [6]) was 9.26%.
Work on O=C(/C=C/C=C/c1ccc([N+](=O)[O-])cc1)c1ccc(OCCCOc2ccc(C(=O)/C=C/C=C/c3ccc([N+](=O)[O-])cc3)cc2)cc1 yielded an inhibition [5] of 95%.
Cc1c(C(=O)/C=C/c2ccco2)c(C(=O)/C=C/c2ccco2)nn1-c1ccc(Br)cc1 showed an Activity (Rattus norvegicus [6]) of 1.07%.
Work on Cc1c(C(=O)/C=C/c2ccco2)c(C(=O)/C=C/c2ccco2)nn1-c1ccc(Cl)cc1 yielded a pIC50 [7] of 5.82, a Ratio IC50 [8] of 65.3 and an Activity (Rattus norvegicus [6]) of 27.86%.
Cc1c(C(=O)/C=C/c2ccc(Cl)cc2Cl)c(C(=O)/C=C/c2ccc(Cl)cc2Cl)nn1-c1ccc(F)cc1 gave an Activity (Rattus norvegicus [6]) of 13.57%.
Molecule Cc1ccc(-n2nc(C(=O)/C=C/c3ccc(Cl)cc3Cl)c(C(=O)/C=C/c3ccc(Cl)cc3Cl)c2C)cc1 has an Activity (Rattus norvegicus [6]) of 10.71%.
In the case of Cc1c(C(=O)/C=C/c2ccc(Cl)cc2)c(C(=O)/C=C/c2ccc(Cl)cc2)nn1-c1ccccc1, the Activity (Rattus norvegicus [1]) was 24.37%, the Activity (Rattus norvegicus [2]) was 57.97% and the Activity (Rattus norvegicus [3]) was 53.2%. The Activity (Rattus norvegicus [4]) was 28.31%.
CN(C)c1ccc(/C=C/C=C/C(=O)c2ccc(OCCCCOc3ccc(C(=O)/C=C/C=C/c4ccc(N(C)C)cc4)cc3)cc2)cc1 showed an inhibition [5] of 27%.
CN(C)c1ccc(/C=C/C=C/C(=O)c2ccc(OCCCOc3ccc(C(=O)/C=C/C=C/c4ccc(N(C)C)cc4)cc3)cc2)cc1 gave a pIC50 [10] of 4.25 and an inhibition [5] of 93%.
In the case of Cc1ccc(-n2nc(C(=O)/C=C/c3ccccc3)c(C(=O)/C=C/c3ccccc3)c2C)cc1, the Activity (Rattus norvegicus [1]) was 28.72%, the Activity (Rattus norvegicus [2]) was 61.76% and the Activity (Rattus norvegicus [3]) was 62.69%. It also gave an Activity (Rattus norvegicus [4]) of 30.16%.
O=C(/C=C/c1c[nH]c2ccccc12)c1ccc(OCCCOc2ccc(C(=O)/C=C/c3c[nH]c4ccccc34)cc2)cc1 showed an inhibition [5] of 98%.
Work on O=C(/C=C/c1cccc2ccccc12)c1ccc(OCCCOc2ccc(C(=O)/C=C/c3cccc4ccccc34)cc2)cc1 yielded a pIC50 [10] of 4.26 and an inhibition [5] of 100%.
